The numbers were not newly measured in patent publication US20050079205A1, “Oleamide-containing composition for animal consumption” (priority 2003, published 2005), which cites them from elsewhere.

For series [1], the system named is lactating Jersey cows. The settings on record: feed supplemented with up to 3.5% oleamide; cited from earlier work.
The subject of series [2] is Holstein cows. The settings on record: 4.2% oleamide through feed or ruminal cannula; cited from earlier work.

Take `CCCCCCCC/C=C\CCCCCCCC(N)=O` [oleamide, cis-9-octadecenioamide]: the dry matter intake result in series [1] and in series [2] was “reduction in dry matter intake” in each case.
